Laboratory results: publication PMC12372887, “Mechanism and cellular actions of the potent AMPK inhibitor BAY-3827” (Science Advances, 2025)

Columns and labels:
Assay in all cases: Kinase panel (140 human kinases)
Format in all cases: biochemical
SYK = SYK (Homo sapiens, UniProt P43405)
Description: (§1) BAY-3827 and BAY-974 were assayed against a 140-human kinase panel at 0.1 μM and at 1 μM (BAY-3827) concentration in a [γ-^33P] ATP–based radioactive filter binding assay ([31], [65]) setup in duplicates with reported mean remaining kinase percentage activity alongside SD (table S1). Assays were performed at either 5, 20, or 50 μM ATP to be at or below the Michaelis constant for ATP for each enzyme and conducted by the services offered by the International Centre for Kinase Profiling at MRC Protein Phosphorylation and Ubiquitylation Unit, University of Dundee (https://www.kinase-screen.mrc.ac.uk/services/premier-screen).

ROCK 2 = ROCK 2 (Homo sapiens, UniProt O75116)
Description: as §1

YES1 = YES1 (Homo sapiens, UniProt P07947)
Chain of YES1 (P07947 whole entry): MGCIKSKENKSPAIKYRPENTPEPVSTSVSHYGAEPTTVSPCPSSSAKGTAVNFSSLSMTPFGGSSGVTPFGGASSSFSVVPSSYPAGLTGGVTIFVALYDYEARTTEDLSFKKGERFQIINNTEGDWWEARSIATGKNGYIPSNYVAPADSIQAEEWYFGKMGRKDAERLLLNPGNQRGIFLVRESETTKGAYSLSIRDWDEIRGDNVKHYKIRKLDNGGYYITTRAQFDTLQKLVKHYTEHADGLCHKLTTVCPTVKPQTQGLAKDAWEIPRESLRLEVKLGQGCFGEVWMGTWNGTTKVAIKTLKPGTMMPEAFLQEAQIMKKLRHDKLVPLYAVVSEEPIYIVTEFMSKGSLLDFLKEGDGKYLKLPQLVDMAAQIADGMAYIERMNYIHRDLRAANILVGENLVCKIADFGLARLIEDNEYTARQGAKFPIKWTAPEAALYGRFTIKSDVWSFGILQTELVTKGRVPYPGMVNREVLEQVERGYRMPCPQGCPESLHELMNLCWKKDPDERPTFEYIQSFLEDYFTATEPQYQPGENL
Description: as §1

IKKb = target: T1, IKKb (Homo sapiens, UniProt O14920)
T1 sequence (O14920 1-756): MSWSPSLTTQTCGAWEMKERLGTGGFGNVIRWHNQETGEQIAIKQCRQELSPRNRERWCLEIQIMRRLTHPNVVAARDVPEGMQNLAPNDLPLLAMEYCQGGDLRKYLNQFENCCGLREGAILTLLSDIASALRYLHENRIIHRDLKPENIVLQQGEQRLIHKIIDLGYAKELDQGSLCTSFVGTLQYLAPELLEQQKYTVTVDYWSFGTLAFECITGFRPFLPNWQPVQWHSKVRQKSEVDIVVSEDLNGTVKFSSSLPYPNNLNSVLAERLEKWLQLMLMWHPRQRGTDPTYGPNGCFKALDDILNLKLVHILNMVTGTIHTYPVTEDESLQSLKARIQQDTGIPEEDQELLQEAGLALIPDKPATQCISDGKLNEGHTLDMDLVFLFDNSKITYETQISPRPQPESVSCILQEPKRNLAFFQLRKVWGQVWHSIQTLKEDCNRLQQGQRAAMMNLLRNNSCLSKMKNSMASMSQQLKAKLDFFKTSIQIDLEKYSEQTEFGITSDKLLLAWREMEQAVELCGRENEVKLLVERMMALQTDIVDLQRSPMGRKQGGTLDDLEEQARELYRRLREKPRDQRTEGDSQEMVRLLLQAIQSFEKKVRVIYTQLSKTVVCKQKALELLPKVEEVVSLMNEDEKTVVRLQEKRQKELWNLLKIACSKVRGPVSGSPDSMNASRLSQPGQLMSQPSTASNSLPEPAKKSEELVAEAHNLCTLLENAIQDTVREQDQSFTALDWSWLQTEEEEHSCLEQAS
Description: as §1

RSK1 = RSK1 (Homo sapiens, UniProt Q15418)
Chain of RSK1 (Q15418 whole entry): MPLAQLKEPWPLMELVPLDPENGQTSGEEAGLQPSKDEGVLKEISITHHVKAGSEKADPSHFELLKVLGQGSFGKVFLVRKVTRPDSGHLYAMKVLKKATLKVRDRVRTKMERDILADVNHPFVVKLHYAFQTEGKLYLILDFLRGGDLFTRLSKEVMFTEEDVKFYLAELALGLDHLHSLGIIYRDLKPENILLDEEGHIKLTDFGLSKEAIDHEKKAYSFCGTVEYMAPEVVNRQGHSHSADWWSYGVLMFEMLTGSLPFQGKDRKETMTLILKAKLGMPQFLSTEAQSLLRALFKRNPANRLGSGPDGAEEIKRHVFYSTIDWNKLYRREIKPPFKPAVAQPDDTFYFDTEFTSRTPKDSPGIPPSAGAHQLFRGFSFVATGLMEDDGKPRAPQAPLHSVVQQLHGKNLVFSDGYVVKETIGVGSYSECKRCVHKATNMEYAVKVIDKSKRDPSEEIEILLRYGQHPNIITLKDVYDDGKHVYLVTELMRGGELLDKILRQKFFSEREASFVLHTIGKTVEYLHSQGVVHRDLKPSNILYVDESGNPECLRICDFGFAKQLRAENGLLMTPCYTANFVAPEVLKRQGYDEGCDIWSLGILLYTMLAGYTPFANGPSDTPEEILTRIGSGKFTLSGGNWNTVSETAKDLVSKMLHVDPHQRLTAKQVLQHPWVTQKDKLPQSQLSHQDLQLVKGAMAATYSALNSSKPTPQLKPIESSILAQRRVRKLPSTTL
Description: as §1

MST4 = MST4 (Homo sapiens, UniProt Q9P289)
Description: as §1

EPH-B4 = EPH-B4 (Homo sapiens, UniProt P54760)
Chain of EPH-B4 (P54760 16-987): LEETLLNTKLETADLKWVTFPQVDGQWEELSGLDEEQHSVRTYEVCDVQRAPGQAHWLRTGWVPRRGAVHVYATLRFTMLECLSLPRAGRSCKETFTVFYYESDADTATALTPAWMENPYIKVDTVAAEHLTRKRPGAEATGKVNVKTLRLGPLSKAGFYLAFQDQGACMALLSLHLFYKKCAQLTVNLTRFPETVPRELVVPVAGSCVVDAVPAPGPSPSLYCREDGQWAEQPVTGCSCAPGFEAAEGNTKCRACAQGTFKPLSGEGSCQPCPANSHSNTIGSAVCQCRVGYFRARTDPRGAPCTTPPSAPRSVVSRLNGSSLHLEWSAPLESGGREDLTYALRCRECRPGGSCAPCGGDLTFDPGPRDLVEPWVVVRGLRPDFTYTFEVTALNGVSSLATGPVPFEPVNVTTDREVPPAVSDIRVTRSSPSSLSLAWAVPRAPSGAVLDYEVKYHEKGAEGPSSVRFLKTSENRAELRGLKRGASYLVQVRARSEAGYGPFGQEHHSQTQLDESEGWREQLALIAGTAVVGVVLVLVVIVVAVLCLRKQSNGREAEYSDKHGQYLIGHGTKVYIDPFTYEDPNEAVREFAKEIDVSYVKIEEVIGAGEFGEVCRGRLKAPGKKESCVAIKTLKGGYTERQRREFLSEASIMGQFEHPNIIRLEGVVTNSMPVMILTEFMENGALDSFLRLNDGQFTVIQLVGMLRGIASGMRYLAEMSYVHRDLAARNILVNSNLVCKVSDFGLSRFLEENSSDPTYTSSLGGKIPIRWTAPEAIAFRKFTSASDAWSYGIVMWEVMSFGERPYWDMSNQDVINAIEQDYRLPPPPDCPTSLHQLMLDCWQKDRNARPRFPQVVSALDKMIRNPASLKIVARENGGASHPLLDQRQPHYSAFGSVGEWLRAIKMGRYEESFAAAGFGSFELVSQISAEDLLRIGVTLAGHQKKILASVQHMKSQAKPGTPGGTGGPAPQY
Description: as §1

IR = IR (Homo sapiens, UniProt P06213)
Chain of IR (P06213 28-1382): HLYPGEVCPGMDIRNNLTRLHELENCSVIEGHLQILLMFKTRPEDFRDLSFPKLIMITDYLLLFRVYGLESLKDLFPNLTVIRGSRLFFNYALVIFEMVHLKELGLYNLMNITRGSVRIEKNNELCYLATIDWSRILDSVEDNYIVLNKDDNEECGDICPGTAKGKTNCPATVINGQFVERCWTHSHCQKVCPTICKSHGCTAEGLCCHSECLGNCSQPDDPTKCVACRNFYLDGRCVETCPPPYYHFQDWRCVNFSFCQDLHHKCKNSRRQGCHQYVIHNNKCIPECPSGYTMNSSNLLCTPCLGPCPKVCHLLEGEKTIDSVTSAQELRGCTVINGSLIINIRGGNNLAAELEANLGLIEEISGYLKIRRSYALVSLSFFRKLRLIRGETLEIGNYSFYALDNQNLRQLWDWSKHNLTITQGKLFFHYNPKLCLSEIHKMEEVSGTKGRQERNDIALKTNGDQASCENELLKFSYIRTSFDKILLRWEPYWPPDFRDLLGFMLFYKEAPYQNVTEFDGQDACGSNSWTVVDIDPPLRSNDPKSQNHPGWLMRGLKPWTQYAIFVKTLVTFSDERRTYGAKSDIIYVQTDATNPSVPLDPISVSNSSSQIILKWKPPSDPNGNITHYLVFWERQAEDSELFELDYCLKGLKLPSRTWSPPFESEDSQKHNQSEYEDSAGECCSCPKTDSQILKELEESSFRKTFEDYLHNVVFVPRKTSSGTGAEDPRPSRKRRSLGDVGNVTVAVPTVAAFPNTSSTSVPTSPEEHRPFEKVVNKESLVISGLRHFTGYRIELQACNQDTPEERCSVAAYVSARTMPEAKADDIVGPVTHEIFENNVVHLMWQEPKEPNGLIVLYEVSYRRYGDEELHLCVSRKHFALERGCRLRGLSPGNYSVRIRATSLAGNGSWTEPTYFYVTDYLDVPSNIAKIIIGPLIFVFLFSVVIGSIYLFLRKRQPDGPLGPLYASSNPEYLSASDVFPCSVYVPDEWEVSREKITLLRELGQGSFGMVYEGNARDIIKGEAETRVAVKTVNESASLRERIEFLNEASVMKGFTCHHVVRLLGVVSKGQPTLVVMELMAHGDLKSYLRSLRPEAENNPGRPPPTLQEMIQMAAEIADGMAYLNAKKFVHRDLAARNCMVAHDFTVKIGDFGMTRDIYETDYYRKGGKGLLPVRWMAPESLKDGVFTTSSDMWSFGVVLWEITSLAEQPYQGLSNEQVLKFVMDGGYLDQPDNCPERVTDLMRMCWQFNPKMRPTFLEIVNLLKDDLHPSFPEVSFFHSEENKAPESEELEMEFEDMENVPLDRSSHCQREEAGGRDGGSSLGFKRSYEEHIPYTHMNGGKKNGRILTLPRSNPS
Description: as §1

TESK1 = TESK1 (Homo sapiens, UniProt Q15569)
Chain of TESK1 (Q15569 whole entry): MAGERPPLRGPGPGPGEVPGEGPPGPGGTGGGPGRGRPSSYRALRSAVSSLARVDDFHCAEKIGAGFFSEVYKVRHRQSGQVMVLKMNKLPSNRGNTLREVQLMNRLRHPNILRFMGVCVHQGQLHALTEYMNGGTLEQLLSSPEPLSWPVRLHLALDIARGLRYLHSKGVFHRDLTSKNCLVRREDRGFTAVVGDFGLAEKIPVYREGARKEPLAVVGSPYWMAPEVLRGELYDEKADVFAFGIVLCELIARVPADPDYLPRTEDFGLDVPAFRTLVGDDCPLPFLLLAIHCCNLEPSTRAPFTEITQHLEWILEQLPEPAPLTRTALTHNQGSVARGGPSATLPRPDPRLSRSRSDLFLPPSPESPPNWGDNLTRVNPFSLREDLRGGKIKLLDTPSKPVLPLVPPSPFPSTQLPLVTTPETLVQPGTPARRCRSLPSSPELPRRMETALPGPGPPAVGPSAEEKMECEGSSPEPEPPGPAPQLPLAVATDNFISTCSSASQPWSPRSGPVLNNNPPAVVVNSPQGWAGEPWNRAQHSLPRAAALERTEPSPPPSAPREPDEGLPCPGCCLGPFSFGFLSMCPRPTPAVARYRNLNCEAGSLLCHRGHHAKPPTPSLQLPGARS
Description: as §1

MST2 = MST2 (Homo sapiens, UniProt Q13188)
Description: as §1

BRSK2 = target: T2, BRSK2 (Homo sapiens, UniProt Q8IWQ3)
T2 sequence (Q8IWQ3 1-736): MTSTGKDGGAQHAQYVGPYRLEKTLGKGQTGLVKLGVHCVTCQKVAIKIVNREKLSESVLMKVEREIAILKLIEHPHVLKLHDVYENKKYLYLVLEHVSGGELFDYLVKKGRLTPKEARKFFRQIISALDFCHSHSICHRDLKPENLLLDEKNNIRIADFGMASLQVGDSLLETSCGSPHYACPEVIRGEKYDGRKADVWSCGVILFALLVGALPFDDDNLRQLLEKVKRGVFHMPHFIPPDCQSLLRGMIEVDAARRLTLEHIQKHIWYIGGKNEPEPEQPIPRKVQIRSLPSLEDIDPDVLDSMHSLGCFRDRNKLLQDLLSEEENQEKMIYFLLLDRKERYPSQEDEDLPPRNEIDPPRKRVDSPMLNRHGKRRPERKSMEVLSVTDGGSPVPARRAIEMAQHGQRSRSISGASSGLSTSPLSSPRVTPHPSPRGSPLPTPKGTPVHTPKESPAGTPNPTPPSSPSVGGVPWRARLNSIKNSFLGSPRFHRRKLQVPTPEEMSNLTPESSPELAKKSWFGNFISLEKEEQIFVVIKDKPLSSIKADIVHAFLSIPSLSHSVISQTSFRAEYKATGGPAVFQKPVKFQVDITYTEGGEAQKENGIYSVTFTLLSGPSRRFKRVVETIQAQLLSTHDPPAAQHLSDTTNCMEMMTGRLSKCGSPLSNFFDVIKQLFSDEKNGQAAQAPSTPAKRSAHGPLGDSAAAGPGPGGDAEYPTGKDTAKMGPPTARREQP
Description: as §1

PRAK = PRAK (Homo sapiens, UniProt Q8IW41)
Description: as §1

SIK2 = SIK2 (Homo sapiens, UniProt Q9H0K1)
Description: as §1

OSR1 = OSR1 (Homo sapiens, UniProt O95747)
Description: as §1

EPH-A4 = EPH-A4 (Homo sapiens, UniProt P54764)
Description: as §1

CAMK1 = CAMK1 (Homo sapiens, UniProt Q14012)
Description: as §1

SRPK1 = SRPK1 (Homo sapiens, UniProt Q96SB4)
Chain of SRPK1 (Q96SB4 whole entry): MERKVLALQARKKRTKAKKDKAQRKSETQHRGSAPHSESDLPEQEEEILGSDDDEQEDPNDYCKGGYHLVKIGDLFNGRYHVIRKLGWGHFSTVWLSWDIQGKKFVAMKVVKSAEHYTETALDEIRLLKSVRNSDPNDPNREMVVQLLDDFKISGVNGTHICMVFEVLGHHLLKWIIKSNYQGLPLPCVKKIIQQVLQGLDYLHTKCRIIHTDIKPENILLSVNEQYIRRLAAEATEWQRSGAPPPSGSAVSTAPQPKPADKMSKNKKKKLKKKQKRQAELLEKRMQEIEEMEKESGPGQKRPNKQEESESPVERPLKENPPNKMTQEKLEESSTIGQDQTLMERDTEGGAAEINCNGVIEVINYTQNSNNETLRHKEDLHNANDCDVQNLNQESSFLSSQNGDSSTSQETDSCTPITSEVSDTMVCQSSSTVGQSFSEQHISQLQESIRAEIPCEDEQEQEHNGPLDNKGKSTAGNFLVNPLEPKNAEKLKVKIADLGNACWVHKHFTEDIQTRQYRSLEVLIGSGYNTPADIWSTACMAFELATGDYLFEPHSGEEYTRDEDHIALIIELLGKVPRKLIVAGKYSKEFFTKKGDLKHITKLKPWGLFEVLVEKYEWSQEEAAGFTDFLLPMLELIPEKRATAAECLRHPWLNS
Description: as §1

DAPK1 = DAPK1 (Homo sapiens, UniProt P53355)
Description: as §1

JAK3 = JAK3 (Homo sapiens, UniProt P52333)
Description: as §1

[1] = 1 μM, cross-referenced with screen data of ref 37, read-out: activity remaining after treatment

Row | SMILES | remaining activity at 0.1 µM (ROCK 2) | remaining activity at 0.1 µM (YES1) | remaining activity at 0.1 µM (IKKb) | remaining activity at 0.1 µM (MST4) | remaining activity at 0.1 µM (EPH-B4) | remaining activity at 0.1 µM (IR) | remaining activity at 0.1 µM (TESK1) | remaining activity at 0.1 µM (MST2) | remaining activity at 0.1 µM (BRSK2) | remaining activity at 0.1 µM (PRAK) | remaining activity at 0.1 µM (SIK2) | remaining activity at 0.1 µM (OSR1) | remaining activity at 0.1 µM (EPH-A4) | remaining activity at 0.1 µM (CAMK1) | remaining activity at 0.1 µM (SRPK1) | remaining activity at 0.1 µM (DAPK1) | remaining activity at 0.1 µM (JAK3) | also measured
1 | CCc1ccccc1C(=O)Nc1n[nH]c2c(C)c(F)c(C3C(C#N)=C(C)N(C)C(C)=C3C#N)cc12 [BAY-3827, N-[5-(3,5-dicyano-1,2,6-trimethyl-4H-pyridin-4-yl)-6-fluoro-7-methyl-1H-indazol-3-yl]-2-ethylbenzamide] | 83% | 98% | 105% | 64% | 109% | 102% | 70% | 85% | 82% | 101% | 107% | 111% | 94% | 80% | 111% | 94% | 90% | remaining activity at 0.1 µM (SYK): 91%; remaining activity at 1 µM (IKKb; 1 μM, IKKβ, cross-referenced with screen data of ref 37, read-out: activity remaining after treatment): ≥ 99%; inhibition at 0.1 µM (RSK1; 0.1 μM): 80 to 85%; remaining activity at 1 µM (RSK1; [1]): ≤ 50%; remaining activity at 1 µM (IR; 1 μM, INSR, cross-referenced with screen data of ref 37, read-out: activity remaining after treatment): ≥ 99%; remaining activity at 1 µM (BRSK2; [1]): ≤ 50%
2 | CC1=C(C#N)C(c2ccc3c(c2)c(NC(=O)c2ccccc2C)nn3C)C(C#N)=C(C)N1 [BAY-974, N-[5-(3,5-dicyano-2,6-dimethyl-1,4-dihydropyridin-4-yl)-1-methylindazol-3-yl]-2-methylbenzamide] | 98% | ≤ 50% | 89% | 98% | 116% | 81% | 88% | 94% | 112% | 107% | 88% | 109% | 81% | 78% | 97% | 109% | 106% | inhibition at 0.1 µM (SYK): 55 to 90%; inhibition at 0.1 µM (YES1): 55 to 90%; remaining activity at 0.1 µM (RSK1; 0.1 μM): 66%
